pIC50: −log10 of the molar value.
Key:
HIF-1 [1] = test: pTK-HRE3-luc reporter assay, 1,10-phenanthroline-induced HIF-1 activation in T47D cells; assay type: cell-based; conditions: Homo sapiens, read-out: inhibition of HIF-1 activation by 1,10-phenanthroline, 100 nM
Description: Iron chelators and transition metals (such as cobalt and nickel) can activate HIF-1 and have been used as chemical hypoxia mimetics. […] The expression of the HIF-1α subunit quantitatively determines HIF-1 biological activity (activation of transcription).

[2] = biological target: T1, recombinant VEGF protein standard (Homo sapiens, UniProt P15692); test: interference with the VEGF ELISA using VEGF standard
T1 construct: purchased R & D Systems
T1 sequence (P15692 27-191 isoform P15692-4): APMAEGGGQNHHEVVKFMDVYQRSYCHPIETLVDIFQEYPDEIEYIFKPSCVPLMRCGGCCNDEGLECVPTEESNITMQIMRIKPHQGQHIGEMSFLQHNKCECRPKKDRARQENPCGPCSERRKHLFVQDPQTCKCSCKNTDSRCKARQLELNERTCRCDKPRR
Method: The effects of compounds 1 and 2 on hypoxic induction of secreted VEGF protein are examined in T47D cells. Exponentially grown T47D cells are plated at the density of 30,000 cells/well into 96-well plates. Compound treatment and hypoxic exposure are the same as described. Following incubation, the concentration of secreted VEGF protein in the conditioned media is determined by ELISA (R & D Systems) and the data normalized by the number of viable cells. Results shown in FIG. 4 are averages from a representative experiment performed in quadruplicate, the bars represent standard error. An asterisk (*) indicates the level of significance (p<0.01) relative to the hypoxic control, two asterisks (**) (p<0.0001), and no asterisk indicates no statistical difference (ANOVA and Fisher's PLSD post hoc test).
As discussed earlier, one important HIF-1 target gene is VEGF, a key factor for tumor angiogenesis. Compounds that can inhibit both HIF-1 activation and the production of secreted VEGF protein represent potential efficacious chemotherapeutic agents that inhibit both tumor survival and hypoxia induced angiogenesis. […] Following incubation, the concentration of secreted VEGF protein in the conditioned media is determined by ELISA (R & D Systems) and the data normalized by the number of viable cells. […] The level of significance (p<0.01) is determined by ANOVA and Fisher's PLSD post hoc test. […]

tumor cell lines = test: NCI in vitro 60-cell line antitumor testing, GI50 pattern; assay type: cell-based; conditions: GI50 60-cell line pattern
Method: (§1) For exemplary purposes, an embodiment of the present invention was tested for activity with respect to certain cancer cell lines. The following Tables show results from in vitro 60-cell line antitumor testing from the US National Cancer Institute Developmental Therapeutics Program (NCI-DTP) on compound 2. The testing was in connection with the NCI's In Vitro Cell Line Screening Project (IVCLSP). Detailed information regarding the experiments and their interpretation is available from the NCI.
Table 2 depicts the GI50 mean bar graph for tumor cell lines, grouped into various categories (such as colon, breast, etc.) The data are arranged to display the relative response selectivity of each cell line relative to one other. This form of data display is used to examine the relative tumor specificity of a text compound. The curves represent the response of each tumor cell line when treated with compound 2.
Antitumor agents with tumor-specific selectivity are highly desired, in order to reduce the incidence of non-selective cytotoxicity to patients. […] This is of special importance since this NCI/ADR-RES cell line is resistant to many currently used antitumor agents such as adriamycin, taxol, and others.

HOP-92 = test: NCI in vitro cell line screen (SRB), Non-Small Cell Lung Cancer HOP-92; assay type: cell-based
Method: as §1

NCI-H322M = test: NCI in vitro cell line screen (SRB), Non-Small Cell Lung Cancer NCI-H322M; assay type: cell-based
Method: as §1

SF-295 = test: NCI in vitro cell line screen (SRB), CNS Cancer SF-295; assay type: cell-based
Method: as §1

M14 = test: NCI in vitro cell line screen (SRB), Melanoma M14; assay type: cell-based
Method: as §1

OVCAR-3 = test: NCI in vitro cell line screen (SRB), Ovarian Cancer OVCAR-3; assay type: cell-based
Method: as §1

HIF-1 [3] = test: pTK-HRE3-luc reporter assay, hypoxia-induced HIF-1 activation in T47D cells; conditions: Homo sapiens, T47D, read-out: IC50, inhibition of hypoxic activation of HIF-1
[4] = Homo sapiens, read-out: LC50 (the source's name)

COc1ccc([C@@H](O)[C@@H](C)Oc2ccc([C@H]3O[C@H](c4ccc(O[C@H](C)[C@H](O)c5ccc6c(c5)OCO6)c(OC)c4)[C@H](C)[C@H]3C)cc2OC)cc1OC [Compound 2, manassantin B]
inhibition at 0.1 µM (HIF-1 [1]): 44%
interference with the ELISA assay [2]: neither compound interferes
selectivity for tumor cell lines (tumor cell lines): up to 10,000 fold
TGI (HOP-92): 2.45E−5 Molar
GI50 (HOP-92; Homo sapiens): 1.98 µM
LC50 (HOP-92; Homo sapiens): > 100 µM
Mean Optical Densities (HOP-92; Log10 Concentration −4.0 Molar): 0.490
Percent Growth (HOP-92; Log10 Concentration −4.0 Molar): −30%
Mean Optical Densities (HOP-92; Log10 Concentration −5.0 Molar): 0.744
Percent Growth (HOP-92; Log10 Concentration −5.0 Molar): 19%
Mean Optical Densities (HOP-92; Log10 Concentration −6.0 Molar): 0.846
Percent Growth (HOP-92; Log10 Concentration −6.0 Molar): 63%
Mean Optical Densities (HOP-92; Log10 Concentration −7.0 Molar): 0.947
Percent Growth (HOP-92; Log10 Concentration −7.0 Molar): 107%
Mean Optical Densities (HOP-92; Log10 Concentration −8.0 Molar): 0.971
Percent Growth (HOP-92; Log10 Concentration −8.0 Molar): 117%
TGI (NCI-H322M): >1.00E−4 Molar
GI50 (NCI-H322M; Homo sapiens): 19.7 µM
LC50 (NCI-H322M; Homo sapiens): > 100 µM
Mean Optical Densities (NCI-H322M; Log10 Concentration −4.0 Molar): 1.146
Percent Growth (NCI-H322M; Log10 Concentration −4.0 Molar): 28%
Mean Optical Densities (NCI-H322M; Log10 Concentration −5.0 Molar): 1.266
Percent Growth (NCI-H322M; Log10 Concentration −5.0 Molar): 59%
Mean Optical Densities (NCI-H322M; Log10 Concentration −6.0 Molar): 1.380
Percent Growth (NCI-H322M; Log10 Concentration −6.0 Molar): 89%
Mean Optical Densities (NCI-H322M; Log10 Concentration −7.0 Molar): 1.370
Percent Growth (NCI-H322M; Log10 Concentration −7.0 Molar): 86%
Mean Optical Densities (NCI-H322M; Log10 Concentration −8.0 Molar): 1.315
Percent Growth (NCI-H322M; Log10 Concentration −8.0 Molar): 72%
TGI (SF-295): 7.46E−5 Molar
GI50 (SF-295; Homo sapiens): < 0.01 µM
CC50 (SF-295; [4]): > 100 µM
Mean Optical Densities (SF-295; Log10 Concentration −4.0 Molar): 0.523
Percent Growth (SF-295; Log10 Concentration −4.0 Molar): −2%
Mean Optical Densities (SF-295; Log10 Concentration −5.0 Molar): 0.621
Percent Growth (SF-295; Log10 Concentration −5.0 Molar): 11%
Mean Optical Densities (SF-295; Log10 Concentration −6.0 Molar): 0.851
Percent Growth (SF-295; Log10 Concentration −6.0 Molar): 39%
Mean Optical Densities (SF-295; Log10 Concentration −7.0 Molar): 0.811
Percent Growth (SF-295; Log10 Concentration −7.0 Molar): 34%
Mean Optical Densities (SF-295; Log10 Concentration −8.0 Molar): 0.751
Percent Growth (SF-295; Log10 Concentration −8.0 Molar): 27%
TGI (M14): >1.00E−4 Molar
GI50 (M14; Homo sapiens): 4.19 µM
CC50 (M14; [4]): > 100 µM
Mean Optical Densities (M14; Log10 Concentration −4.0 Molar): 0.439
Percent Growth (M14; Log10 Concentration −4.0 Molar): 12%
Mean Optical Densities (M14; Log10 Concentration −5.0 Molar): 0.521
Percent Growth (M14; Log10 Concentration −5.0 Molar): 30%
Mean Optical Densities (M14; Log10 Concentration −6.0 Molar): 0.764
Percent Growth (M14; Log10 Concentration −6.0 Molar): 83%
Mean Optical Densities (M14; Log10 Concentration −7.0 Molar): 0.843
Percent Growth (M14; Log10 Concentration −7.0 Molar): 100%
Mean Optical Densities (M14; Log10 Concentration −8.0 Molar): 0.809
Percent Growth (M14; Log10 Concentration −8.0 Molar): 93%
TGI (OVCAR-3): 4.32E−6 Molar
GI50 (OVCAR-3; Homo sapiens): 0.627 µM
CC50 (OVCAR-3; [4]): > 100 µM
Mean Optical Densities (OVCAR-3; Log10 Concentration −4.0 Molar): 0.367
Percent Growth (OVCAR-3; Log10 Concentration −4.0 Molar): −36%
Mean Optical Densities (OVCAR-3; Log10 Concentration −5.0 Molar): 0.465
Percent Growth (OVCAR-3; Log10 Concentration −5.0 Molar): −19%
Mean Optical Densities (OVCAR-3; Log10 Concentration −6.0 Molar): 0.616
Percent Growth (OVCAR-3; Log10 Concentration −6.0 Molar): 33%
Mean Optical Densities (OVCAR-3; Log10 Concentration −7.0 Molar): 0.722
Percent Growth (OVCAR-3; Log10 Concentration −7.0 Molar): 117%
Mean Optical Densities (OVCAR-3; Log10 Concentration −8.0 Molar): 0.679
Percent Growth (OVCAR-3; Log10 Concentration −8.0 Molar): 83%
pIC50 (HIF-1 [3]): 8.52
